# Experimental data from EP4198025A1, “BENZIMIDAZOLE DERIVATIVES FOR THE TREATMENT AND PROPHYLAXIS OF INFECTIOUS DISEASES” (Eberhard Karls Universität Tübingen Medizinische Fakultät, priority 2021, dated 2023).
# Read-outs that look alike come from different tables or passages of the source.
# Columns and labels:
# SurA [1] = target: T1, SurA (Escherichia coli, UniProt P0ABZ6); assay: biochemical; assay type: binding, E. coli
# Experimental: His-tagged SurA was labeled with the Monolith His-Tag Labeling Kit RED-tris-NTA (Nanotemper) according to the manufacturer's instructions.
# Microscale thermophoresis measurements were performed in 40 mM HEPES pH 7.4, 0.05 % Tween-20 at 25°C with a Monolith NT.115 (NanoTemper) in standard capillaries.
# SurA [2] = target: T1, SurA; assay type: binding, E. coli; parameters: key: An increase of the inflection points in the nanoDSF experiments is indicated by (+); a decrease by (-); no changes with (none); ambiguity with a question mark (?); conditions: 100 µM compound, 2 µM SurA, 40 mM HEPES pH 7.4
# Experimental: Nano Differential Scanning Fluorimetry (nanoDSF) measurements of the QHL (qualified hit list) compounds provided by the ELF were performed on a Tycho system (NanoTemper).
# E. coli ATCC 25922 = assay: Minimal inhibitory concentration assay / Vancomycin sensitizer MIC assay; assay type: cell-based; conditions: Escherichia coli, ATCC25922
# From the text: The intended effect of a SurA inhibitor should be the induction of a disturbance of the outer membrane composition resulting in an increased susceptibility to antibiotic treatment. Of note, Vancomycin is typically not used to treat infections with Gram-negative bacteria, because it is excluded by the OM and not efficient at concentrations that could be achieved in patients. However, at appropriate dosing in vitro it can be used to detect outer membrane defects. For determining a potential sensitizing effect of Vancomycin treatment, the inventors first tested whether the compounds at hand were bactericidal per se. Therefore, the inventors performed a minimal inhibitory concentration (MIC) assay. To this end, 5 ml overnight cultures of E. coli BW25113 (Keio-Collection reference strain), E. coli JW2496-3 (Keio-Collection single gene knockout for bamB, which suffers from decreased outer membrane integrity) and E. coli ATCC 25922 (a reference strain recommended for antibiotic susceptibility testing) were grown in Mueller Hinton Broth, Cation adjusted (MHB-II). […] After o/n incubation, bacterial growth was quantified by measuring the optical density at 600 nm wavelength in a multiplate reader. […] Of note, the bactericidal effect of Vancomycin was assessed similarly for each test strain using Vancomycin concentrations ranging from 512 - 0.25 mg/ml. […]
# firefly Luciferase = firefly Luciferase (Photinus pyralis, UniProt P08659); assay: Luciferase interference deselection assay (D1) at the ELF; assay type: biochemical
# Experimental: The confirmed actives of ELF program ELFSC17_02 were tested as serial dilutions in the primary assay and deselection assay to generate dose response curves (DRCs). The serial dilutions consisted of 7 equidistant concentration steps (20 µM to 27.4 nM) and were tested in the primary and in the deselection assay in duplo (n=2) in 1536-well format. […] For the luciferase interference deselection assay in DRC-format, luciferase was left out in the Max effect wells, mimicking a 100% effect situation and resulting in a decreased signal. Compounds showing a signal decrease larger than 5 times the standard deviation (Z-score > 5) were identified as luciferase inducer. […] The ActivityBase application (IDBS) was used to analyze the data and to calculate quality parameters like Z-prime and Signal to Background ratio (S/B). For all compounds the % effect was calculated for all seven concentrations. ActivityBase was also used to calculate the pEC50 and Hill Slope. […] For compounds where no curve was fitted but reached >50% effect at 20 µM the Fit_Max was locked at 100% effect. For compounds where no curve was fitted but reached 100% effect at 20 µM and descended to <50% at 27 nM the Fit_Min was locked at 0%.
# HepG2 cells = assay: Cytotoxicity assay, LDH release; assay type: cell-based; conditions: 500 µM compound
# Experimental: Cell cytotoxicity was evaluated monitoring the LDH release from HepG2 cells using the CytoTox 96® Non-Radio Cytotoxicity Assay (Promega) according to the manufacturer's instructions. […] After incubation, 25 µl were transferred into a fresh 96-well flat clear bottom plate and mixed with 25 µl CytoTox 96® Reagent. LDH release reactions were incubated 30 min at RT in the dark and 25 µl Stop Solution were added. LDH release was measured at 490 nm in a multiplate reader.
# SurA [3] = target: T1, SurA; assay type: biochemical, E. coli; parameters: key to primary assay SurA: SurA inhibition = +; no SurA inhibiton = 0
# From the text: The biological function of SurA is to bind and to keep outer membrane proteins that have reached the periplasm in an unfolded but folding-competent state. The inventors' assay is based on this interaction and uses firefly Luciferase (fLuc) as a non-native substrate. […] This is exploited in the assay (Figure 3). The loss of tertiary structure of fLuc leads to the exposure of binding sites for SurA. It is known that SurA binds selectively to a special group of substrates. These substrates have in common the specific patterns of hydrophobic amino acids that are highly enriched in the beta strands of integral outer membrane proteins. These motifs are present in OMPs of all Gram-negative bacteria and in fLuc as well. Upon mild heat treatment of fLuc and its subsequent partial unfolding, fLuc is accepted as a substrate by SurA. Of note, these intermediates served as reporter substrates to determine the activity of a cytoplasmic folding chaperone. […] This interaction remains stable upon temperature reduction. Next, the temperature of the assay is reduced to room temperature and luciferase activity is subsequently measured by addition of Luciferin and ATP. In conditions without SurA, fLuc will refold into its active conformation resulting in a luminescence signal. […] In the case of presence of a SurA inhibitor (Figure 3 B), fLuc will adopt an active conformation resulting in an increased luminescence signal compared to conditions without SurA inhibition.
# In short, the Luciferase based SurA activity assay was performed in SurA Activity Assay Buffer (40 mM HEPES pH 7.4, 20 mM MgSO4, 0.5 g/l BSA). SurA aliquots were thawn at RT, activated by mild heat treatment and cooled down to RT for 10 min. SurA concentration was adjusted to 1.6 µM in Activity Assay Buffer (protein solution). […] Subsequently, the assay plate was cooled for 5 min at 4°C followed by 10 min incubation at RT prior to luminescence measurement. Luminescence was measured in a TECAN infinite M200 pro plate reader for each well individually after injection of 10 µl Solution A.
# Luciferase = Luciferase (Photinus pyralis, UniProt P08659); assay: Primary assay buffer control without SurA: interference with Luciferase per se; assay type: biochemical, firefly; parameters: key: no influence on Luc activity = 0; enhances Luc activity = +; reduces Luc activity = -
# Experimental: In short, the Luciferase based SurA activity assay was performed in SurA Activity Assay Buffer (40 mM HEPES pH 7.4, 20 mM MgSO4, 0.5 g/l BSA). SurA aliquots were thawn at RT, activated by mild heat treatment and cooled down to RT for 10 min. SurA concentration was adjusted to 1.6 µM in Activity Assay Buffer (protein solution). Solution A containing 10 mM ATP as well as 0.3 mM Luciferin (Promega Beetle Luciferin, Potassium Salt) in water was prepared. Luciferase working solution was prepared by diluting 1 ml Luciferase working stock (100 nM) with 9 ml assay buffer. 33 µl of the protein solution were added to every 2nd row of a well of a 384-well PS, white, flat bottom plate. […] Subsequently, 2 µl of compound in DMSO were added in quadruplicates (4 wells each of protein solution and buffer controls). These compound solutions could contain either various compounds or different dilutions of the same compound allowing screening inhibitor activity in a dose dependent manner. After compound addition, plates were incubated 15 min at RT. After this incubation, 5 µl of Luciferase working solution were added to each well. […] Subsequently, the assay plate was cooled for 5 min at 4°C followed by 10 min incubation at RT prior to luminescence measurement. Luminescence was measured in a TECAN infinite M200 pro plate reader for each well individually after injection of 10 µl Solution A. […]
# [4] = Solubility estimate based on turbidity (OD600nm); assay type: physicochemical
# From the text: The activity in the primary assay is distinguished into influence on SurA (SurA inhibition = +; no SurA inhibiton = 0) or interference with Luciferase per se (no influence on Luc activity = 0; enhances Luc activity = +; reduces Luc activity = -).
# SurA [5] = target: T1, SurA; assay: biochemical; assay type: biochemical, E. coli
# From the text: The biological function of SurA is to bind and to keep outer membrane proteins that have reached the periplasm in an unfolded but folding-competent state. The inventors' assay is based on this interaction and uses firefly Luciferase (fLuc) as a non-native substrate. […] The loss of tertiary structure of fLuc leads to the exposure of binding sites for SurA. It is known that SurA binds selectively to a special group of substrates. These substrates have in common the specific patterns of hydrophobic amino acids that are highly enriched in the beta strands of integral outer membrane proteins. These motifs are present in OMPs of all Gram-negative bacteria and in fLuc as well. Upon mild heat treatment of fLuc and its subsequent partial unfolding, fLuc is accepted as a substrate by SurA. Of note, these intermediates served as reporter substrates to determine the activity of a cytoplasmic folding chaperone. […] This interaction remains stable upon temperature reduction. Next, the temperature of the assay is reduced to room temperature and luciferase activity is subsequently measured by addition of Luciferin and ATP. In conditions without SurA, fLuc will refold into its active conformation resulting in a luminescence signal.
# Of note, the SurA activity assay was performed similar at the ELF but with optimizations in regard of the higher throughput including the change of the plate format to 1536-wells. The SurA activity assay performed at the ELF contained the following steps (adapted from the QHL report provided by the ELF). First, SurA was thawed at RT and heat activated in a water bath. Next, the vial was taken out of the water bath and cooled down to RT for 30 min @ bench. […] Noteworthy, the SurA solution was kept on ice. 15 nL of 4 mM compound in DMSO were added to columns 9-48 with Echo acoustic nano-dispenser (ECHO). Additionally, 15 nL 100% DMSO were transferred to columns 1-8 with ECHO. […] The plate was spun for 60 seconds at 1000 rpm to ensure proper fluid localization at the bottom of the wells. […] Again, the plate was centrifuged for 60 seconds at 1000 rpm. […] To allow refolding of the luciferase, the plate was incubated 30 minutes at RT.
# SurA [6] = target: T1, SurA; assay type: binding, E. coli; parameters: key to nanoDSF pH 5 Ti#1 / nanoDSF pH 5 Ti#2 / nanoDSF pH 7.4 Ti#1 / nanoDSF pH 7.4 Ti#2: An increase of the inflection points in the nanoDSF experiments is indicated by (+); a decrease by (-); no changes with (none); ambiguity with a question mark (?)
# Experimental: To this end, 5 µl of a 2 mM compound solution in DMSO were mixed with 95 µl of a 20 µM SurA solution. Technical triplicate measurements were performed on a Prometheus system (NanoTemper).
# T1 sequence (P0ABZ6 21-428): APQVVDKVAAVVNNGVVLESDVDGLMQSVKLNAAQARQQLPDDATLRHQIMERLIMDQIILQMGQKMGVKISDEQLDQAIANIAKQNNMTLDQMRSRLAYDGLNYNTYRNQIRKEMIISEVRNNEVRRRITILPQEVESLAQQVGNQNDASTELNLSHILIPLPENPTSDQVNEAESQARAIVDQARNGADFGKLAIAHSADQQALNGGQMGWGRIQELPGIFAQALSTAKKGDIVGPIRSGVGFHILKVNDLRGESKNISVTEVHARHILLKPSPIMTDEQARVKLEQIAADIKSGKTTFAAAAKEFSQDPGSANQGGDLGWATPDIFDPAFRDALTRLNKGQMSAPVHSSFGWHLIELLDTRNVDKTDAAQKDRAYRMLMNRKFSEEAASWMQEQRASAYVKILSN
# firefly Luciferase, sequence (P08659 whole entry): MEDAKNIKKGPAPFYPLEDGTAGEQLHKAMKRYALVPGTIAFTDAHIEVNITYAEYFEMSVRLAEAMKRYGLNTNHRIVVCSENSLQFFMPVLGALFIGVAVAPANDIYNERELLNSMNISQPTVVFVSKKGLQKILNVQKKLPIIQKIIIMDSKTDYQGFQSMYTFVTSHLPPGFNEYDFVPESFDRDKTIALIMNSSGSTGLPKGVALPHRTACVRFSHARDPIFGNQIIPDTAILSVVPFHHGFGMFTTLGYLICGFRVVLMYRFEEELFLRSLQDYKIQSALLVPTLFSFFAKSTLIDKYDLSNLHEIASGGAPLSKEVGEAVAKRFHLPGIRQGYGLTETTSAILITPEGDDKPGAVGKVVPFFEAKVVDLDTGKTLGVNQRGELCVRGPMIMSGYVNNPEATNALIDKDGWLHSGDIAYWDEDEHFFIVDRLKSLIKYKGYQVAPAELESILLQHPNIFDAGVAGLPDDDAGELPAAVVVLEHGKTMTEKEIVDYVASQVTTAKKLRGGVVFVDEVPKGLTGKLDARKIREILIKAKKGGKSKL
# Luciferase, sequence (P08659 whole entry): as above
compound,measurement,setting,value
"CN(C)c1ccc(-c2nc3cc(NC(=O)Cn4cc5ccccc5n4)ccc3[nH]2)cc1 [QHL-24, N-(2-(4-(dimethylamino)phenyl)-1H-benzo[d]imidazol-5-yl)-2-(2H-indazol-2-yl)acetamide]",Kd,SurA [1],0.02 to 0.03 mM
same,Re-evaluation (Tuebingen) MST score,SurA [1]; re-evaluation of QHL compound remainders,inconclusive
same,Kd,SurA [1]; read-out: MST (Kd in mM),0.02 to 0.03 mM
same,Re-evaluation (Tuebingen) nanoDSF (Tycho) Ti#1,SurA [2],none
same,Re-evaluation (Tuebingen) nanoDSF (Tycho) Ti#2,SurA [2],+
same,MIC,E. coli ATCC 25922,< 256 µg/mL
same,IC50,firefly Luciferase,38 µM
same,Deselection (D1) plC50,"firefly Luciferase; Luciferase interference, 7 concentration steps 20 µM to 27.4 nM",4.42
same,CytoTox (observation in the well),HepG2 cells,precipitate
same,CytoTox,"HepG2 cells; LDH release, 1 h at 37°C",7.87%
same,SurA inhibition in the Luciferase-based SurA activity assay (in words),SurA [3],very high SurA inhibition
same,Primary Assay ICmax,"SurA [3]; concentration of maximum SurA inhibition, dose response up to 250 µM, resynthesized/repurchased compounds",5 to 10 µM
same,primary assay SurA,SurA [3]; influence on SurA,+
same,primary assay Luciferase,Luciferase,-
same,solubility (in words),[4],poor solubility
same,IC50,SurA [5],3.55 µM
same,Primary assay (P1) % Effect,"SurA [5]; ELF library screen, 1536-well",151%
same,Primary assay (P1) Z-score,"SurA [5]; ELF library screen, 1536-well",191.97
same,LipE,SurA [5]; listed under calculated properties,1.39
same,thermal stability of SurA as detected by nanoDSF (in words),SurA [6],affected the thermal stability of SurA
same,nanoDSF pH 7.4 Ti#1,"SurA [6]; 40 mM HEPES pH 7.4, 150 NaCl",none
same,nanoDSF pH 7.4 Ti#2,"SurA [6]; 40 mM HEPES pH 7.4, 150 NaCl",-
same,nanoDSF pH 5 Ti#1,SurA [6]; 50 mM HAc pH 5,none
same,nanoDSF pH 5 Ti#2,SurA [6]; 50 mM HAc pH 5,+
